What was measured:
HepG2 cells = assay: TG-HDL2 internalization by HepG2 cells; assay type: cell-based, human; details: 10 min at 37° C.; for effect on the stimulation by ADP of the TG-HDL2 internalization: ADP 100 nM + A2P5P 100 μM or MRS2179 10 μM
Description: Cells were incubated for 10 minutes at 37° C. with 75 μg/ml^125I-TG-HDL2 without (control) or with apolipoprotein A-I 10 μg/ml (a), ADP 100 nM (b), AR-C69931MX 100 nM (c), ADP 100 nM+AR-C69931MX 100 nM (d), ADP 100 nM+[…] 100 μM (e), ADP 100 nM+MRS2179 10 μM (f). […] Internalization assays were performed as described in Guendouzi et al., (Biochemistry, 1998, 37: 14974-80) on HepG2 cells, obtained from the American Type Culture Collection ([…]). Cells were incubated for 10 minutes at 37° C. with 75 μg/ml of either ^125I-TG-HDL2, ^125I-HDL3 or ^125I-LDL. After washing and dissociation at 4° C. in phosphate buffered saline (PBS), cell radioactivity was determined using a Wallac 1261 multigamma apparatus. Prior experiments, cells were plated in polylysine-coated 24-multiwell plates (Falcon) at 4×10^4 cells per well. Cells were grown in Dulbecco's modified Eagles medium supplemented with 10% fetal calf serum, 100 units/ml penicillin, and 100 μg/ml streptomycin at 37° C. in a 5% CO2 and 95% air incubator. Medium was changed every 2 or 3 days, and the cells were subcultured every 7-8 days. Results are expressed as a percentage of internalization with respect to the control value (set at 0). Control corresponded to a basal value of internalization, amounting to 400 ng, 300 ng, 200 ng of TG-HDL2, HDL3 and LDL per mg of cells protein respectively for 10 minutes. Data as a mean ±SEM of at least 7, 5, 6 independent experiments, for TG-HDL2, HDL3 and LDL respectively.

human P2Y13 receptor = molecular target: T1, human P2Y13 receptor (Homo sapiens, UniProt Q9BPV8); assay: TG-HDL2 internalization by HepG2 cells after P2Y13 receptor silencing by siRNA; assay type: cell-based; details: HepG2, P2Y13 siRNA 100 nM, 48 h; apoA-I 10 μg/ml, ADP 100 nM, AR-C69931MX 100 nM
T1 construct: host or cells: HepG2
T1 sequence (Q9BPV8 1-354): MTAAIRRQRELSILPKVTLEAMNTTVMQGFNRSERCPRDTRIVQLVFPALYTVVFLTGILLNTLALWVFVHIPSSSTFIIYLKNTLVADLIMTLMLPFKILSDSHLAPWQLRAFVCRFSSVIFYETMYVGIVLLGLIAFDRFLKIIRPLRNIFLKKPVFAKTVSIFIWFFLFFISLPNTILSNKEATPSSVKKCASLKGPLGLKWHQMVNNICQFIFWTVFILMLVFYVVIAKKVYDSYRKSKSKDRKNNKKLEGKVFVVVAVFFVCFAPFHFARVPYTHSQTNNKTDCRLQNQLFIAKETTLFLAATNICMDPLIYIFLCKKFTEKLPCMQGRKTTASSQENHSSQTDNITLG
Description: Experiment was performed as in FIG. 2A with non-specific control siRNA (a, b, c) or with siRNA directed to human P2Y13 receptor (d, e, f, g) (n>7); (*) p<0.05 (unpaired t-test).
(§1) Internalization assays were performed as described in Guendouzi et al., (Biochemistry, 1998, 37: 14974-80) on HepG2 cells, obtained from the American Type Culture Collection ([…]). Cells were incubated for 10 minutes at 37° C. with 75 μg/ml of either ^125I-TG-HDL2, ^125I-HDL3 or ^125I-LDL. After washing and dissociation at 4° C. in phosphate buffered saline (PBS), cell radioactivity was determined using a Wallac 1261 multigamma apparatus.
(§2) The silencing of the different P2Y receptors were carried-out using the siRNA technique. The siRNA sequenced targeting human P2Y13 receptor (Gene Bank GB/EMBL/DDBJ accession number AF295368) was from position 406 or 359 relative to the start codon. The siRNA duplex (21-nt-RNAs) in deprotected and desalted form, the siRNA targeting human P2Y1 receptor (a mix of 4 siRNAs, M-005689), and the non-specific control siRNA (D-001206-01) were purchased from Dharmacon Inc. Subconfluent HepG2 cells were transiently transfected with siRNAs (final concentration, 100 nM) using Oligofectamine™ according to the manufacturer's protocole (Invitrogen). Cells were usually assayed 48 hours after transfection. Specific silencing effect was confirmed by at least three independent experiments.
Results are expressed as a percentage of internalization with respect to the control value (set at 0). Control corresponded to a basal value of internalization, amounting to 400 ng, 300 ng, 200 ng of TG-HDL2, HDL3 and LDL per mg of cells protein respectively for 10 minutes. Data as a mean ±SEM of at least 7, 5, 6 independent experiments, for TG-HDL2, HDL3 and LDL respectively.

human P2Y1 receptor = molecular target: T2, human P2Y1 receptor (Homo sapiens, UniProt P47900); assay: TG-HDL2 internalization by HepG2 cells after P2Y1 receptor silencing by siRNA; assay type: cell-based; details: HepG2, pool of 4 P2Y1 siRNAs 100 nM, 48 h; apoA-I 10 μg/ml, ADP 100 nM, AR-C69931MX 100 nM
T2 construct: host or cells: HepG2
Description: HepG2 cells were transiently transfected with siRNA designated to human P2Y1 receptor (columns d, e, f, g) or with non specific siRNA as control (a, b, c). 48 hours later, cells were incubated for 10 minutes at 37° C. with 75 μg/ml ^125I-TG HDL2 without (control) or with apolipoprotein A-I 10 μg/ml (a and d), ADP 100 nM (b and e), AR-C69931MX 100 nM (c and f), PBS (g). Data are expressed as a percentage of internalized radioactivity with respect to the control value (set as 0) (n>5); (*) p<0.05 (unpaired t-test).
as §1, §2
Results are expressed as a percentage of internalization with respect to the control value (set at 0). Control corresponded to a basal value of internalization, amounting to 400 ng, 300 ng, 200 ng of TG-HDL2, HDL3 and LDL per mg of cells protein respectively for 10 minutes. […]

T2 sequence (P47900 whole entry): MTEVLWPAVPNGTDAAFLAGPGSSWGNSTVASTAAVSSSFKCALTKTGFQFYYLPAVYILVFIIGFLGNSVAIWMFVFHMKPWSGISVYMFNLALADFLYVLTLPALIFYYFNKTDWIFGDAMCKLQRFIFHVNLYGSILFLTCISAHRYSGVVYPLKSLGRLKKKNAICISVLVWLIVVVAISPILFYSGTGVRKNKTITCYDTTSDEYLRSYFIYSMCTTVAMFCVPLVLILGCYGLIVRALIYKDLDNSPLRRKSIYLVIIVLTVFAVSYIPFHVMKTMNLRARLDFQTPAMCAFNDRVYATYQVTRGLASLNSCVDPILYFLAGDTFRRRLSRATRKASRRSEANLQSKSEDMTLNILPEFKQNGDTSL

Compound | effect on the stimulation by ADP of the TG-HDL2 internalization (HepG2 cells) | effect of P2Y13 receptor silencing on TG-HDL2 endocytosis after stimulation (human P2Y13 receptor) | internalization of 125I-TG-HDL2 by HepG2 cells, increase above control cells (HepG2 cells; 75 μg/ml 125I-TG-HDL2, apoA-I 10 μg/ml, ADP 100 nM, AR-C69931MX 100 nM alone) | effect of P2Y1 receptors silencing on the stimulation of TG-HDL2 endocytosis (human P2Y1 receptor)
Nc1ncnc2c1ncn2[C@@H]1O[C@H](COP(=O)(O)O)[C@@H](O)[C@H]1OP(=O)(O)O [A2P5P] | no effect |  |  | 
CNc1ncnc2c1ncn2[C@H]1C[C@H](OP(=O)(O)O)[C@@H](COP(=O)(O)O)O1 [MRS2179] | no effect |  |  | 
apoA-I: HDL apolipoprotein A-I; generates ADP through activation of the ectopic form of ATP synthase |  | dramatic inhibition | 20% | no effect

Source: US20070249555A1, “Use of Atp Analogues for Treatment of Cardiovascular Diseases” (INSTITUT NATIONAL DE LA SANTE ET DE LA RECHERCHE MEDICALE …, priority 2004, published 2007)
